The text below walks through data of patent US20240342292A1, “Compounds for the Degradation of EGFR Kinase” (BeiGene Switzerland GmbH, priority 2021, published 2024).

One experiment deals with Del19/T790M/C797S EGFR. The experiment in a line: EGFR degradation HTRF assay in H1975-clone #28 (DTC) cells. The experiment is classed as cell-based. Conditions: H1975 # 28 DTC (Del19/T790M/C797S), 16h treatment; for DC50: HTRF; for Dmax (%): maximum percentage of degradation. Put shortly:
(§1)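 Remaining EGFR protein was measured by HTRF (337 nm excitation, 665/620 nm emission) in lysates after overnight antibody incubation. Cells had been exposed for 16 h to an 8-point, 5-fold series starting at 10 uM, and DC50 values were fitted with a Hill equation.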

The target in the next experiment is T1, L858R/T790M/C797S EGFR (Homo sapiens, UniProt P00533, C797S/L858R/T790M).
T1 construct: expressed in transfected cells; host or cells: H1975 clone #25 (lentiviral over-expression, endogenous EGFR knocked out by sgRNA)
T1 sequence (P00533 25-1210 T790M/C797S/L858R): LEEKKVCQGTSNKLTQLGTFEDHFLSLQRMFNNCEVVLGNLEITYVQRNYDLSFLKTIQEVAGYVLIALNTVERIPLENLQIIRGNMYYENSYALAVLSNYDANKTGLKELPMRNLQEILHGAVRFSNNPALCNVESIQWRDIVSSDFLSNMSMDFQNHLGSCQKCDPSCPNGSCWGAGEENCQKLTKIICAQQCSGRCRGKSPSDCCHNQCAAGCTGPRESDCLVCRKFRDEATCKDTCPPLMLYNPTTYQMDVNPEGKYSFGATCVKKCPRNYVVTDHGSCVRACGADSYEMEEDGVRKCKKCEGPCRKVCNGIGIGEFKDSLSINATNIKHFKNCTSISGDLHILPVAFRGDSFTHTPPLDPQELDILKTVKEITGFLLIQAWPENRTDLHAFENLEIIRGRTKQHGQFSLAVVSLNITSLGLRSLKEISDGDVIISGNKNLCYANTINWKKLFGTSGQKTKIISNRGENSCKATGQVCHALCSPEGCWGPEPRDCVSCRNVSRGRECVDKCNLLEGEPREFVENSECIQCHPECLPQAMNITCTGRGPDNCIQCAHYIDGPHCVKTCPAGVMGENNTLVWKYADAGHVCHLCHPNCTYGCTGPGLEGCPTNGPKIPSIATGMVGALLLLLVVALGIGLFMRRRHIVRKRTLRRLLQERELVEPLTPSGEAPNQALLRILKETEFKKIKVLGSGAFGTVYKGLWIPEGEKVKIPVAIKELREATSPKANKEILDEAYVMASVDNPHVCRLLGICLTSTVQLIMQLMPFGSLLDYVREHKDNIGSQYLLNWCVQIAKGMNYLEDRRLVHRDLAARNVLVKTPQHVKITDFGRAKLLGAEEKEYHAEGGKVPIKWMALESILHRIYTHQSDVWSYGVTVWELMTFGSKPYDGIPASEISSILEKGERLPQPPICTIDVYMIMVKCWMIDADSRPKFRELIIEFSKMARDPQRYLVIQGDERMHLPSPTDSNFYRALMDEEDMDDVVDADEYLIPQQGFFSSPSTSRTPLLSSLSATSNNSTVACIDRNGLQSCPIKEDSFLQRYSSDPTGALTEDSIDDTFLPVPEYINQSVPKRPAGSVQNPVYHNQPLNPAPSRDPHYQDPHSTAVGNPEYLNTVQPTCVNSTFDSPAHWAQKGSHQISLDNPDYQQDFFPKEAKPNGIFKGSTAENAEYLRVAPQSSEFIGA
The experiment in a line: EGFR degradation HTRF assay in H1975-clone #25 (LTC) cells. Type of experiment: cell-based. Conditions: 16h treatment; for DC50: H1975 # 25-LTC (L858R/T790M/C797S), HTRF; for Dmax: NCI-H1975, H1975 # 25-LTC (L858R/T790M/C797S), maximum percentage of degradation. Put shortly:
as §1
For orientation: TR-FRET usually uses a lanthanide donor and a delayed reading to cut background.

A word on the DC50: it is the concentration giving 50% degradation. The term Dmax denotes the greatest extent of degradation seen. Take `Cc1cc2cc(n1)-c1c(C(F)F)nn(C)c1OCCC[C@@H](C)CN1/C(=N/C2=O)Nc2ccc(CN3CCN(C(=O)C4CN(c5cc(F)c([C@H]6CCC(=O)NC6=O)c(F)c5)C4)CC3)cc21` [Example 64, (R)-3-(4-(3-(4-(((R,E)-13-(difluoromethyl)-1^1,2^6,7-trimethyl-3-oxo-5^2,5^3-dihydro-1^1H,5^1H-11-oxa-4-aza-5(2,1)-benzo[d]imidazola-2(2,4)-pyridina-1(4,5)-pyrazolacycloundecaphane-5^6-yl)methyl)piperazine-1-carbonyl)azetidin-1-yl)-2,6-difluorophenyl)piperidine-2,6-dione]: in the experiment with Del19/T790M/C797S EGFR, the DC50 was 1.51 nM and the “Dmax (%)” value came to 80.65%. For the same compound, at L858R/T790M/C797S EGFR, the DC50 is 3.13 nM and the Dmax was determined as 76.8%.

Consider `Cc1cc2cc(n1)-c1cnn(C)c1OCCC[C@@H](C)CN1/C(=N/C2=O)Nc2ccc(C(=O)N(C)C3CN(CCc4cc(F)c([C@H]5CCC(=O)NC5=O)c(F)c4)C3)cc21` [Example 308], for which, in the experiment on Del19/T790M/C797S EGFR, half-maximal degradation (DC50) was put at 0.646 nM and the “Dmax (%)” value was determined as 64.88%. At L858R/T790M/C797S EGFR, it took 0.702 nM to reach half-maximal degradation (DC50) and the Dmax was 88.5%.

As to `Cc1cc2cc(n1)-c1cnn(C)c1OCCC[C@@H](C)CN1/C(=N/C2=O)Nc2ccc(CN3CCN(C(=O)C4CN(c5ccc(F)c6c5n(C)c(=O)n6C5CCC(=O)NC5=O)C4)CC3)cc21` (stereo partly drawn) [Example 94, 3-(7-fluoro-3-methyl-2-oxo-4-(3-(4-(((R,E)-1^1,2^6,7-trimethyl-3-oxo-5^2,5^3-dihydro-1^1H,5^1H-11-oxa-4-aza-5(2,1)-benzo[d]imidazola-2(2,4)-pyridina-1(4,5)-pyrazolacycloundecaphane-5^6-yl)methyl)piperazine-1-carbonyl)azetidin-1-yl)-2,3-dihydro-1H-benzo[d]imidazol-1-yl)piperidine-2,6-dione], in the experiment on Del19/T790M/C797S EGFR, the half-maximal degradation concentration (DC50) was determined as 0.7 nM and the “Dmax (%)” value was found to be 80.5%. At L858R/T790M/C797S EGFR, this compound gave a DC50 of 0.5 nM and a Dmax of 90.6%.

In the case of `Cc1cc2cc(n1)-c1cnn(C)c1OCCC[C@@H](C)CN1/C(=N/C2=O)Nc2ccc(N3CCC(C(=O)N(C)CCc4cc(F)c([C@H]5CCC(=O)NC5=O)c(F)c4)CC3)cc21` [Example 335, N-(4-((R)-2,6-dioxopiperidin-3-yl)-3,5-difluorophenethyl)-N-methyl-1-((R,E)-1^1,2^6,7-trimethyl-3-oxo-5^2,5^3-dihydro-1^1H,5^1H-11-oxa-4-aza-5(2,1)-benzo[d]imidazola-2(2,4)-pyridina-1(4,5)-pyrazolacycloundecaphane-5^6-yl)piperidine-4-carboxamide], in the experiment with Del19/T790M/C797S EGFR, half-maximal degradation (DC50) was put at 0.789 nM and the “Dmax (%)” value came to 60.16%. At L858R/T790M/C797S EGFR, this compound showed a DC50 of 0.657 nM and a Dmax of 79.4%.

As for `Cc1cc2cc(n1)-c1cnn(C)c1OCCC[C@@H](C)CN1/C(=N/C2=O)Nc2ccc(C(=O)N(C)C3CCN(CCc4cccc5c4oc(=O)n5C4CCC(=O)NC4=O)CC3)cc21` (stereo partly drawn) [Example 315, (7R,E)-N-(1-(2-(3-(2,6-dioxopiperidin-3-yl)-2-oxo-2,3-dihydrobenzo[d]oxazol-7-yl)ethyl)piperidin-4-yl)-N,1^1,2,7-tetramethyl-3-oxo-5^2,5^3-dihydro-1^1H,5^1H-11-oxa-4-aza-5(2,1)-benzo[d]imidazola-2(2,4)-pyridina-1(4,5)-pyrazolacycloundecaphane-5^6-carboxamide], in the experiment with Del19/T790M/C797S EGFR, the DC50 amounted to 3.18 nM and the “Dmax (%)” value is 63.86%. Also, on L858R/T790M/C797S EGFR, the DC50 came to 1.37 nM and the Dmax came out at 80.5%.

`Cc1cc2cc(n1)-c1cnn(C)c1OCCC[C@@H](C)CN1/C(=N/C2=O)Nc2ccc(C(=O)N(C)[C@@H]3CCN(CCNc4cc(F)c([C@H]5CCC(=O)NC5=O)c(F)c4)C[C@@H]3F)cc21` [Example 350, (R,E)-N—((3S,4R)-1-(2-((4-((R)-2,6-dioxopiperidin-3-yl)-3,5-difluorophenyl)amino)ethyl)-3-fluoropiperidin-4-yl)-N,1^1,2^6,7-tetramethyl-3-oxo-5^2,5^3-dihydro-1^1H,5^1H-11-oxa-4-aza-5(2,1)-benzo[d]imidazola-2(2,4)-pyridina-1(4,5)-pyrazolacycloundecaphane-5^6-carboxamide]: in the experiment with Del19/T790M/C797S EGFR, the DC50 amounted to 0.662 nM and the “Dmax (%)” value is 86.74%. At L858R/T790M/C797S EGFR, this compound registered a DC50 of 0.614 nM and a Dmax of 90.4%.

For `Cc1cc2cc(n1)-c1cnn(C)c1OCCC[C@@H](C)CN1/C(=N/C2=O)Nc2ccc(C(=O)N3CC[C@@H](N(C)CCc4cc(F)c([C@H]5CCC(=O)NC5=O)c(F)c4)C3)cc21` [Example 295, (R)-3-(2,6-difluoro-4-(2-(menthyl((R)-1-((R,E)-1^1,2^6,7-trimethyl-3-oxo-5^2,5^3-dihydro-1^1H,5^1H-11-oxa-4-aza-5(2,1)-benzo[d]imidazola-2(2,4)-pyridina-1(4,5)-pyrazolacycloundecaphane-5^6-carbonyl)pyrrolidin-3-yl)amino)ethyl)phenyl)piperidine-2,6-dione], in the experiment with Del19/T790M/C797S EGFR, the DC50 came out at 0.313 nM and the “Dmax (%)” value is 78.39%. On L858R/T790M/C797S EGFR, this compound yielded a DC50 of 0.478 nM and a Dmax of 89.5%.

With `Cc1cc2cc(n1)-c1cnn(C)c1OCCC[C@@H](C)CN1/C(=N/C2=O)Nc2ccc(C(=O)N(C)CCC3CCN(c4cc(F)c([C@H]5CCC(=O)NC5=O)c(F)c4)CC3)cc21` [Example 279, (R,E)-N-(2-(1-(4-((R)-2,6-dioxopiperidin-3-yl)-3,5-difluorophenyl)piperidin-4-yl)ethyl)-N,1^1,2^6,7-tetramethyl-3-oxo-5^2,5^3-dihydro-1^1H,5^1H-11-oxa-4-aza-5(2,1)-benzo[d]imidazola-2(2,4)-pyridina-1(4,5)-pyrazolacycloundecaphane-5^6-carboxamide], in the experiment with Del19/T790M/C797S EGFR, the DC50 was 0.75 nM and the “Dmax (%)” value was found to be 82.08%. At L858R/T790M/C797S EGFR, this compound showed a DC50 of 1.33 nM and a Dmax of 83%.

Turning to `Cc1cc2cc(n1)-c1cnn(C)c1OCCC[C@@H](C)CN1/C(=N/C2=O)Nc2ccc(N3CCN(C4CCN(c5ccc6c(c5)CN([C@H]5CCC(=O)NC5=O)C6=O)CC4)CC3)cc21` [Example 396, (S)-3-(1-oxo-5-(4-(4-((R,E)-1^1,2^6,7-trimethyl-3-oxo-5^2,53-dihydro-1^1H,5^1H-11-oxa-4-aza-5(2,1)-benzo[d]imidazola-2(2,4)-pyridina-1(4,5)-pyrazolacycloundecaphane-5^6-yl)piperazin-1-yl)piperidin-1-yl)isoindolin-2-yl)piperidine-2,6-dione], in the experiment with Del19/T790M/C797S EGFR, half-maximal degradation (DC50) was put at 0.681 nM and the “Dmax (%)” value is on record as 63.49%. Besides, on L858R/T790M/C797S EGFR, the DC50 came to 0.622 nM and the Dmax turned out to be 83.6%.

Take `Cc1cc2cc(n1)-c1cnn(C)c1OCCC[C@@H](C)CN1/C(=N/C2=O)Nc2ccc(C(=O)N(C)[C@H]3CCN(CCc4cc(F)c([C@H]5CCC(=O)NC5=O)c(F)c4)[C@@H](C)C3)cc21` [Example 267, (R,E)-N—((2S,4S)-1-(4-((R)-2,6-dioxopiperidin-3-yl)-3,5-difluorophenethyl)-2-methylpiperidin-4-yl)-N,1^1,2^6,7-tetramethyl-3-oxo-5^2,5^3-dihydro-1^1H,5^1H-11-oxa-4-aza-5(2,1)-benzo[d]imidazola-2(2,4)-pyridina-1(4,5)-pyrazolacycloundecaphane-5^6-carboxamide]: in the experiment on Del19/T790M/C797S EGFR, the DC50 was 0.624 nM and the “Dmax (%)” value worked out at 76.64%. For the same compound, at L858R/T790M/C797S EGFR, the DC50 was determined as 0.602 nM and the Dmax was determined as 91.7%.
